Where two headings read alike, the source gives them in different places.
How the values were obtained:
[1] = tested on: P. aeruginosa expressing IMP-1, efflux+ (MB9798); assay type: cell-based, Pseudomonas aeruginosa; settings: for P. aeruginosa expressing IMP-1, efflux+ (MB9798) MITC95: imipenem at 2 μg/mL, in the presence of a class A, C, D serine β-lactamase inhibitor closely related to relebactam; for Efflux ratio: ratio MITC95 PA_9798/MITC95 PA_9799
Description: (§1) The strain background is Pseudomonas aeruginosa PAO1.

NDM-1 = NDM-1 (Klebsiella pneumoniae, UniProt C7C422); experiment: biochemical; assay type: biochemical; settings: CCF2-FA substrate, 2 hours at 25° C; read-out: NDM-1 IC50
Outline: (§2)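 Enzyme activity was measured by fluorescence using CCF2-FA, a cephalosporin-linked 7-hydroxycoumarin/fluorescein substrate, with inhibitor, metallo-β-lactamase and substrate incubated together for 2 hours at 25° C. IC50 came from a 4-parameter fit of inhibition versus log inhibitor concentration.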

IMP-1 = IMP-1 (Serratia marcescens, UniProt P52699); experiment: biochemical; assay type: biochemical
Outline: as §2

VIM-1 = VIM-1 (Pseudomonas aeruginosa (strain ATCC 15692 / DSM 22644 / CIP 104116 / JCM 14847 / LMG 12228 / 1C / PRS 101 / PAO1), UniProt A0A0F7KYQ8); experiment: biochemical; settings: CCF2-FA substrate, 2 hours at 25° C
Outline: as §2

[2] = tested on: P. aeruginosa expressing IMP-1, efflux− (MB9799); experiment: Efflux: concentration of MBL inhibitor which restores susceptibility to imipenem; assay type: cell-based, Pseudomonas aeruginosa; settings: imipenem at 2 μg/mL, in the presence of a class A, C, D serine β-lactamase inhibitor closely related to relebactam
Description: as §1

[3] = tested on: Serratia marcescens expressing IMP-1 (CL5741); assay type: cell-based; settings: with imipenem 1 μg/ml, 95% inhibition of bacterial growth; for Serratia marcescens MITC95: IMP-1 (CL5741)
Outline: (§3)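 Restoration of imipenem susceptibility (1 μg/ml imipenem) was judged by absorbance after 22–24 h at 35° C. Test compound was added to bacteria suspended 1:100 in 1.1× CAMHB from overnight blood-agar cultures.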

[4] = tested on: Klebsiella pneumoniae expressing VIM-1 (IHMA599644); assay type: cell-based; settings: with imipenem 1 μg/ml, 95% inhibition of bacterial growth; for Klebsiella pneumoniae MITC95: VIM-1 (IHMA599644)
Outline: as §3

[5] = tested on: Escherichia coli expressing NDM-1 (CLB30005, CLB30016); assay type: cell-based; settings: with imipenem 1 μg/ml, 95% inhibition of bacterial growth; for Escherichia coli MITC95: NDM-1 (CLB30016)
Outline: as §3

[6] = CCF2-FA substrate, 2 hours at 25° C, read-out: IMP-1 IC50

Chain of NDM-1 (C7C422 whole entry, looked up, species assumed): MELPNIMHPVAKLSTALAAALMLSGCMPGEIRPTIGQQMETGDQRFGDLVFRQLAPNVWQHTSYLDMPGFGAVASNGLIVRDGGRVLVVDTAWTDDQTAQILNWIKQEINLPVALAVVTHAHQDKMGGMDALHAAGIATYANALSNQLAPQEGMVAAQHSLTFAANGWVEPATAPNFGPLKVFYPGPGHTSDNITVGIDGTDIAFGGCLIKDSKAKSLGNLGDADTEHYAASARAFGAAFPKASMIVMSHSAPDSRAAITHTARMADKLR
Chain of IMP-1 (P52699 whole entry, looked up, species assumed): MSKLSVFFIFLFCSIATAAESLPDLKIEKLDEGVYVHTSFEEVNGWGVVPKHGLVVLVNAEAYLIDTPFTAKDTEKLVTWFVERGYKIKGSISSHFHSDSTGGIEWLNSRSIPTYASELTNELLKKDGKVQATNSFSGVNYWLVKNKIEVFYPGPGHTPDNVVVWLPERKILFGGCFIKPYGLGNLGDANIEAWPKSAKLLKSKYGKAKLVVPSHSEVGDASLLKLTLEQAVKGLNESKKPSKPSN

NCCS(=O)(=O)c1ccc(-c2cccc3nc(N)oc23)c(-c2nn[nH]n2)c1S(N)(=O)=O [Example 74, 3-(2-aminobenzo[d]oxazol-7-yl)-6-(2-aminoethylsulfonyl)-2-(2H-tetrazol-5-yl)benzenesulfonamide]
P. aeruginosa expressing IMP-1, efflux+ (MB9798) MITC95 [1]: 3.125 µM
Efflux ratio [1]: 4.00
IC50 (NDM-1): 0.096 nM
IC50 (IMP-1): 0.989 nM
IC50 (VIM-1): 0.172 nM
P. aeruginosa expressing IMP-1, efflux− (MB9799) MITC95 [2]: 0.7813 µM
Serratia marcescens expressing IMP-1 (CL5741) MITC95 [3]: 1.563 µM
Klebsiella pneumoniae expressing VIM-1 (IHMA599644) MITC95 [4]: 3.125 µM
Escherichia coli expressing NDM-1 (CLB30016) MITC95 [5]: 0.7813 µM

Nc1nc2c(-c3ccc(S(=O)(=O)CCO)c(S(N)(=O)=O)c3-c3nn[nH]n3)cccc2c[n+]1[O-] [Example 319, 2-amino-8-(4-((2-hydroxyethyl)sulfonyl)-3-sulfamoyl-2-(2H-tetrazol-5-yl)phenyl)quinazoline 3-oxide]
P. aeruginosa expressing IMP-1, efflux+ (MB9798) MITC95 [1]: 25 µM
Efflux ratio [1]: 2.00
IC50 (NDM-1): 0.194 nM
IC50 (IMP-1; [6]): 1.92 nM
IC50 (VIM-1): 0.407 nM
P. aeruginosa expressing IMP-1, efflux− (MB9799) MITC95 [2]: 12.5 µM
Serratia marcescens MITC95 [3]: 25 µM
Klebsiella pneumoniae MITC95 [4]: 50 µM
Escherichia coli MITC95 [5]: 100 µM

Nc1cn2cccc(-c3ccc(S(=O)(=O)C4CNC4)c(S(N)(=O)=O)c3-c3nnn[nH]3)c2n1 [Example 65, 3-(2-Aminoimidazo[1,2-a]pyridin-8-yl)-6-(azetidin-3-ylsulfonyl)-2-(H-tetraazol-5-yl)benzenesulfonamide]
P. aeruginosa expressing IMP-1, efflux+ (MB9798) MITC95 [1]: 25 µM
Efflux ratio [1]: 4.00
IC50 (NDM-1): 0.784 nM
IC50 (IMP-1; [6]): 2.5 nM
IC50 (VIM-1): 0.627 nM
P. aeruginosa expressing IMP-1, efflux− (MB9799) MITC95 [2]: 6.25 µM
Serratia marcescens expressing IMP-1 (CL5741) MITC95 [3]: 6.25 µM
Klebsiella pneumoniae expressing VIM-1 (IHMA599644) MITC95 [4]: 12.5 µM
Escherichia coli expressing NDM-1 (CLB30016) MITC95 [5]: 1.563 µM

NCC(O)CS(=O)(=O)c1ccc(-c2cccc3sc(N)nc23)c(-c2nn[nH]n2)c1S(N)(=O)=O (centres unmarked) [Example 97, 6-(3-amino-2-hydroxypropylsulfonyl)-3-(2-aminobenzo[d]thiazol-4-yl)-2-(2H-tetrazol-5-yl)benzenesulfonamide]
P. aeruginosa expressing IMP-1, efflux+ (MB9798) MITC95 [1]: 0.3906 µM
IC50 (NDM-1): 0.0645 nM
IC50 (IMP-1; [6]): 0.171 nM
IC50 (VIM-1): 0.249 nM
P. aeruginosa expressing IMP-1, efflux− (MB9799) MITC95 [2]: 0.7813 µM
Serratia marcescens expressing IMP-1 (CL5741) MITC95 [3]: 1.563 µM
Klebsiella pneumoniae expressing VIM-1 (IHMA599644) MITC95 [4]: 1.563 µM
Escherichia coli expressing NDM-1 (CLB30016) MITC95 [5]: 0.7813 µM

NC(=O)c1cn2cccc(-c3ccc(S(=O)(=O)C4CNC4)c(S(N)(=O)=O)c3-c3nnn[nH]3)c2n1 [Example 59, 8-(4-(azetidin-3-ylsulfonyl)-3-sulfamoyl-2-(1H-tetrazol-5-yl)phenyl)imidazo[1,2-a]pyridine-2-carboxamide]
P. aeruginosa expressing IMP-1, efflux+ (MB9798) MITC95 [1]: 3.125 µM
Efflux ratio [1]: 2.00
IC50 (NDM-1): 0.131 nM
IC50 (IMP-1; [6]): 1.44 nM
IC50 (VIM-1): 0.187 nM
P. aeruginosa expressing IMP-1, efflux− (MB9799) MITC95 [2]: 1.563 µM
Serratia marcescens expressing IMP-1 (CL5741) MITC95 [3]: 3.125 µM
Klebsiella pneumoniae expressing VIM-1 (IHMA599644) MITC95 [4]: 3.125 µM
Escherichia coli expressing NDM-1 (CLB30016) MITC95 [5]: 3.125 µM

NS(=O)(=O)c1c(S(=O)(=O)C2CNC2)ccc(-c2cnn3c2CCCC3)c1-c1nnn[nH]1.O=C(O)C(F)(F)F [Example 129, 3-((2-sulfamoyl-4-(4,5,6,7-tetrahydropyrazolo[1,5-a]pyridin-3-yl)-3-(1H-tetrazol-5-yl)phenyl)sulfonyl)azetidin-1-ium 2,2,2-trifluoroacetate]
P. aeruginosa expressing IMP-1, efflux+ (MB9798) MITC95 [1]: 25 µM
Efflux ratio [1]: 15.99
IC50 (NDM-1): 0.647 nM
IC50 (IMP-1; [6]): 2.63 nM
IC50 (VIM-1): 1.24 nM
P. aeruginosa expressing IMP-1, efflux− (MB9799) MITC95 [2]: 1.563 µM
Serratia marcescens expressing IMP-1 (CL5741) MITC95 [3]: 6.25 µM
Klebsiella pneumoniae expressing VIM-1 (IHMA599644) MITC95 [4]: 6.25 µM
Escherichia coli expressing NDM-1 (CLB30016) MITC95 [5]: 6.25 µM

Nc1nc2c(-c3ccc(S(=O)(=O)CC(N)CO)c(S(N)(=O)=O)c3-c3nn[nH]n3)cccc2s1 (centres unmarked) [Example 96, 6-(2-amino-3-hydroxypropylsulfonyl)-3-(2-aminobenzo[d]thiazol-4-yl)-2-(2H-tetrazol-5-yl)benzenesulfonamide]
P. aeruginosa expressing IMP-1, efflux+ (MB9798) MITC95 [1]: 0.7813 µM
Efflux ratio [1]: 0.50
IC50 (NDM-1): 0.122 nM
IC50 (IMP-1; [6]): 0.265 nM
IC50 (VIM-1): 0.185 nM
P. aeruginosa expressing IMP-1, efflux− (MB9799) MITC95 [2]: 1.563 µM
Serratia marcescens expressing IMP-1 (CL5741) MITC95 [3]: 1.563 µM
Klebsiella pneumoniae expressing VIM-1 (IHMA599644) MITC95 [4]: 3.125 µM
Escherichia coli expressing NDM-1 (CLB30016) MITC95 [5]: 1.563 µM

NCCS(=O)(=O)c1ccc(-c2ccc(C(F)(F)F)c3sc(N)nc23)c(-c2nn[nH]n2)c1S(N)(=O)=O [Example 72, 3-(2-amino-7-(trifluoromethyl)benzo[d]thiazol-4-yl)-6-(2-aminoethylsulfonyl)-2-(2H-tetrazol-5-yl)benzenesulfonamide]
P. aeruginosa expressing IMP-1, efflux+ (MB9798) MITC95 [1]: 3.125 µM
Efflux ratio [1]: 4.00
IC50 (NDM-1): 0.153 nM
IC50 (IMP-1; [6]): 0.322 nM
IC50 (VIM-1): 0.286 nM
P. aeruginosa expressing IMP-1, efflux− (MB9799) MITC95 [2]: 0.7813 µM
Serratia marcescens expressing IMP-1 (CL5741) MITC95 [3]: 1.563 µM
Klebsiella pneumoniae expressing VIM-1 (IHMA599644) MITC95 [4]: 1.563 µM
Escherichia coli expressing NDM-1 (CLB30016) MITC95 [5]: 0.7813 µM

Nc1nc2cccc(-c3ccc(S(=O)(=O)[C@@H]4CCNC4)c(S(N)(=O)=O)c3-c3nn[nH]n3)c2[nH]1 [Example 181, 3-(2-amino-3H-benzo[d]imidazol-4-yl)-6-((R)-pyrrolidin-3-ylsulfonyl)-2-(2H-tetrazol-5-yl)benzenesulfonamide]
P. aeruginosa expressing IMP-1, efflux+ (MB9798) MITC95 [1]: 0.6875 µM
Efflux ratio [1]: 1.00
IC50 (NDM-1): 0.149 nM
IC50 (IMP-1; [6]): 0.807 nM
IC50 (VIM-1): 0.42 nM
P. aeruginosa expressing IMP-1, efflux− (MB9799) MITC95 [2]: 0.6875 µM
Serratia marcescens expressing IMP-1 (CL5741) MITC95 [3]: 0.6875 µM
Klebsiella pneumoniae expressing VIM-1 (IHMA599644) MITC95 [4]: 0.8542 µM
Escherichia coli expressing NDM-1 (CLB30016) MITC95 [5]: 0.3203 µM

COC(=O)c1cccc(-c2ccc(S(=O)(=O)CCN)c(S(N)(=O)=O)c2-c2nn[nH]n2)c1N [Example 197, methyl 2-amino-4′-((2-aminoethyl)sulfonyl)-3′-sulfamoyl-2′-(2H-tetrazol-5-yl)-[1,1′-biphenyl]-3-carboxylate]
P. aeruginosa expressing IMP-1, efflux+ (MB9798) MITC95 [1]: 12.5 µM
Efflux ratio [1]: 8.00
IC50 (NDM-1): 0.556 nM
IC50 (IMP-1; [6]): 0.554 nM
IC50 (VIM-1): 0.262 nM
P. aeruginosa expressing IMP-1, efflux− (MB9799) MITC95 [2]: 1.563 µM
Serratia marcescens expressing IMP-1 (CL5741) MITC95 [3]: 1.563 µM
Klebsiella pneumoniae expressing VIM-1 (IHMA599644) MITC95 [4]: 3.125 µM
Escherichia coli expressing NDM-1 (CLB30016) MITC95 [5]: 0.7813 µM

Nc1nc2c(-c3ccc(S(=O)(=O)c4cccc(C(F)(F)F)c4)c(S(N)(=O)=O)c3-c3nn[nH]n3)cccc2s1 [Example 250, 3-(2-Aminobenzo[d]thiazol-4-yl)-2-(2H-tetrazol-5-yl)-6-((3-(trifluoromethyl)phenyl)sulfonyl)benzenesulfonamide]
P. aeruginosa expressing IMP-1, efflux+ (MB9798) MITC95 [1]: 200 µM
Efflux ratio [1]: 64.00
IC50 (NDM-1): 0.245 nM
IC50 (IMP-1; [6]): 0.82 nM
IC50 (VIM-1): 0.681 nM
P. aeruginosa expressing IMP-1, efflux− (MB9799) MITC95 [2]: 3.125 µM
Serratia marcescens MITC95 [3]: 6.25 µM
Klebsiella pneumoniae MITC95 [4]: 100 µM
Escherichia coli MITC95 [5]: 6.25 µM

NC[C@H](N)CS(=O)(=O)c1ccc(-c2cccc3[nH]c(N)nc23)c(-c2nnn[nH]2)c1S(N)(=O)=O [Example 293, 3-(2-amino-1H-benzo[d]imidazol-4-yl)-6-((S)-2,3-diaminopropylsulfonyl)-2-(1H-tetrazol-5-yl)benzenesulfonamide]
P. aeruginosa expressing IMP-1, efflux+ (MB9798) MITC95 [1]: 0.7813 µM
Efflux ratio [1]: 1.00
IC50 (NDM-1): 0.157 nM
IC50 (IMP-1; [6]): 1.31 nM
IC50 (VIM-1): 0.465 nM
P. aeruginosa expressing IMP-1, efflux− (MB9799) MITC95 [2]: 0.7813 µM
Serratia marcescens MITC95 [3]: 1.563 µM
Klebsiella pneumoniae MITC95 [4]: 1.563 µM
Escherichia coli MITC95 [5]: 0.3906 µM

COC(=O)c1nc2c(-c3ccc(S(=O)(=O)C4CNC4)c(S(N)(=O)=O)c3-c3nn[nH]n3)cccc2[nH]1 [Example 252, Methyl 4-(4-(azetidin-3-ylsulfonyl)-3-sulfamoyl-2-(2H-tetrazol-5-yl)phenyl)-1H-benzo[d]imidazole-2-carboxylate]
P. aeruginosa expressing IMP-1, efflux+ (MB9798) MITC95 [1]: 3.125 µM
Efflux ratio [1]: 1.00
IC50 (NDM-1): 0.0464 nM
IC50 (IMP-1; [6]): 0.423 nM
IC50 (VIM-1): 0.209 nM
P. aeruginosa expressing IMP-1, efflux− (MB9799) MITC95 [2]: 3.125 µM
Serratia marcescens MITC95 [3]: 3.125 µM
Klebsiella pneumoniae MITC95 [4]: 6.25 µM
Escherichia coli MITC95 [5]: 1.563 µM
